# Columns and labels:
# [1] = tested on: tobacco mosaic virus (TMV); assay: Anti-TMV in vivo therapeutic effect; design: species or system tobacco mosaic virus (host Nicotiana tabacum L.cv.Xanthi NN); conditions: for inhibition at 100 µg/mL / inhibition at 500 µg/mL: Tobacco mosaic virus, read-out: Relative inhibition rate (%) In vivo therapy
# [2] = tested on: Colletotrichum orbiculare; assay: Fungicidal (bactericidal) activity in vitro, PDA colony diameter; assay type: cell-based; conditions: 50 mg/kg; for inhibition of growth at 50 mg/kg: Colletotrichum orbiculare, 96 h
# corn borers [3] = assay: whole plant or invertebrate; conditions: read-out: Corn borer Mortality (%)
# Botrytis cinerea = assay: Fungicidal (bactericidal) activity in vitro, PDA colony diameter; assay type: cell-based; conditions: 50 mg/kg; for inhibition of growth at 50 mg/kg: Botrytis cinerea, 96 h
# [4] = tested on: tobacco mosaic virus (TMV); assay: Anti-TMV in vivo inactivation; design: species or system tobacco mosaic virus (host Nicotiana tabacum L.cv.Xanthi NN); conditions: for inhibition at 100 µg/mL / inhibition at 500 µg/mL: Tobacco mosaic virus, read-out: Relative inhibition rate (%) In vivo inactivation
# Bipolaria maydis = assay: organism not typed; assay type: cell-based; conditions: for inhibition at 50 mg/kg: read-out: Bactericidal activity (%) Bipolaria maydis
# [5] = tested on: tobacco mosaic virus (TMV); assay: Anti-TMV in vivo protective effect; design: species or system tobacco mosaic virus (host Nicotiana tabacum L.cv.Xanthi NN); conditions: for inhibition at 100 µg/mL / inhibition at 500 µg/mL: Tobacco mosaic virus, read-out: Relative inhibition rate (%) In vivo protection
# Macrophoma kawatsukai = assay: Fungicidal (bactericidal) activity in vitro, PDA colony diameter; assay type: cell-based; conditions: 50 mg/kg
# Phytophthora capsici = assay: as above; assay type: cell-based; conditions: 50 mg/kg; for inhibition of growth at 50 mg/kg: Phytophthora capsici, 96 h
# Rhizoctonia cereali = assay: as above; assay type: cell-based; conditions: 50 mg/kg; for inhibition of growth at 50 mg/kg: Rhizoctonia, 96 h
# [6] = tested on: tobacco mosaic virus (TMV); assay: Anti-TMV in vitro effect (half-leaf soaking); assay type: cell-based, tobacco mosaic virus (host Nicotiana tabacum L.cv.Xanthi NN); conditions: for inhibition at 100 µg/mL / inhibition at 500 µg/mL: Tobacco mosaic virus, read-out: Relative inhibition rate (%) In vitro activity
# mosquito larvae = assay: whole plant or invertebrate; conditions: 24 h
# Procedure, shortened: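 Compound dissolved in acetone (or other solvent) to a 1000 ppm stock and diluted in water to 5 ppm. Ten Culex pipiens pallens larvae at the start of the fourth instar, laboratory-reared, added per beaker; solvent-only aqueous control.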
# cucumber fusarium wilt = assay: Fungicidal (bactericidal) activity in vitro, PDA colony diameter; assay type: cell-based; conditions: 50 mg/kg; for inhibition of growth at 50 mg/kg: Fusarium, 96 h
# Alternaria solani = assay: as above; assay type: cell-based; conditions: 50 mg/kg; for inhibition of growth at 50 mg/kg: Alternaria solani, 96 h
# Sclerotinia scleotiorum = assay: as above; assay type: cell-based; conditions: 50 mg/kg; for inhibition of growth at 50 mg/kg: Sclerotinia, 96 h
# Cercospora arachidicola = assay: as above; assay type: cell-based; conditions: 50 mg/kg; for inhibition of growth at 50 mg/kg: Mycosphaerella arachidis, 96 h
# Fusarium fujikuroi = assay: as above; assay type: cell-based; conditions: 50 mg/kg; for inhibition of growth at 50 mg/kg: Fusarium fujikuroi, 96 h
# cotton bollworms = assay: whole plant or invertebrate; conditions: for mortality at 600 mg/kg: Helicoverpa armigera, in Gossypium hirsutum, read-out: Cotton bollworm Mortality (%)
# Procedure: Experimental method of cotton bollworms: feed and drug mixing method: measure 3 mL of prepared solution and add it to about 27 g of newly prepared feed, thereby obtaining needed concentration through dilution by 10 times.
# Rhizoctonia solani = assay: Fungicidal (bactericidal) activity in vitro, PDA colony diameter; assay type: cell-based; conditions: 50 mg/kg; for inhibition of growth at 50 mg/kg: Rhizoctonia solani, 96 h
# potato late blight = assay: microbe, parasite or virus in culture; assay type: cell-based; conditions: for inhibition of growth at 50 mg/kg: Phytophthora infestans, 96 h, read-out: Bactericidal activity (%) potato late blight
# Fusarium graminearumt = assay: microbe, parasite or virus in culture; assay type: cell-based; conditions: for inhibition of growth at 50 mg/kg: Fusarium, 96 h, read-out: Bactericidal activity (%) Fusarium graminearumt
# armyworms = assay type: in vivo; conditions: concentration 600 mg/kg
# corn borers [7] = conditions: concentration 600 mg/kg
# [8] = tested on: tobacco mosaic virus (TMV); assay: Anti-TMV activity, overall statements on Table 1; assay type: in vivo, tobacco mosaic virus (host Nicotiana tabacum L.cv.Xanthi NN); conditions: 100 μg/mL versus ningnanmycin at 100 μg/mL
# [9] = Culex pipiens, read-out: Mosquito larvae Mortality (%)
smiles,measurement,setting,value
"C[C@@H]1N[C@H](C(=O)NC2CCCCC2)Cc2c1[nH]c1ccccc21 [Ib-17, (1S, 3S)—N-cyclohexyl-1-methyl-2,3,4,9-tetrahydro-pyridino [3,4-b] indol-3-formamide]",inhibition at 100 µg/mL,[1]; treatment dose 100 μg/mL,15.1%
same,inhibition at 500 µg/mL,[1]; treatment dose 500 μg/mL,44.6%
same,inhibition of growth at 50 mg/kg,[2],50%
same,mortality at 600 mg/kg,corn borers [3],40%
same,inhibition of growth at 50 mg/kg,Botrytis cinerea,27.3%
same,inhibition at 100 µg/mL,[4]; treatment dose 100 μg/mL,12.3%
same,inhibition at 500 µg/mL,[4]; treatment dose 500 μg/mL,43.3%
same,inhibition at 50 mg/kg,Bipolaria maydis,45.5%
same,inhibition at 100 µg/mL,[5]; treatment dose 100 μg/mL,14.2%
same,inhibition at 500 µg/mL,[5]; treatment dose 500 μg/mL,37.1%
same,inhibition at 50 mg/kg,Macrophoma kawatsukai,47.6%
same,inhibition of growth at 50 mg/kg,Phytophthora capsici,37.5%
same,inhibition of growth at 50 mg/kg,Rhizoctonia cereali,71.1%
same,inhibition at 100 µg/mL,[6]; treatment dose 100 μg/mL,0%
same,inhibition at 500 µg/mL,[6]; treatment dose 500 μg/mL,38.8%
same,mortality at 5 mg/kg,mosquito larvae; [9],10%
same,mortality at 10 mg/kg,mosquito larvae; [9],100%
same,inhibition of growth at 50 mg/kg,cucumber fusarium wilt,34.6%
same,inhibition of growth at 50 mg/kg,Alternaria solani,52.6%
same,inhibition of growth at 50 mg/kg,Sclerotinia scleotiorum,33.3%
same,inhibition of growth at 50 mg/kg,Cercospora arachidicola,69.2%
same,inhibition of growth at 50 mg/kg,Fusarium fujikuroi,28.6%
same,mortality at 600 mg/kg,cotton bollworms,30%
same,inhibition of growth at 50 mg/kg,Rhizoctonia solani,50%
same,inhibition of growth at 50 mg/kg,potato late blight,31.8%
same,inhibition of growth at 50 mg/kg,Fusarium graminearumt,59.5%
same,Armyworm Mortality (%),armyworms,45%
"C[C@@H]1N[C@H](C(=O)NCN(C)C)Cc2c1[nH]c1ccccc21 [Ib-19, (1S, 3S)—N-((dimethylamino)methyl)-1-methyl-2,3,4,9-tetrahydro-pyridino [3,4-b] indol-3-formamide]",inhibition at 100 µg/mL,[1]; treatment dose 100 μg/mL,0%
same,inhibition at 500 µg/mL,[1]; treatment dose 500 μg/mL,20.9%
same,inhibition of growth at 50 mg/kg,[2],25.9%
same,mortality at 600 mg/kg,corn borers [3],10%
same,inhibition of growth at 50 mg/kg,Botrytis cinerea,27.3%
same,inhibition at 100 µg/mL,[4]; treatment dose 100 μg/mL,0%
same,inhibition at 500 µg/mL,[4]; treatment dose 500 μg/mL,18.5%
same,inhibition at 50 mg/kg,Bipolaria maydis,24%
same,inhibition at 100 µg/mL,[5]; treatment dose 100 μg/mL,0%
same,inhibition at 500 µg/mL,[5]; treatment dose 500 μg/mL,24.7%
same,inhibition at 50 mg/kg,Macrophoma kawatsukai,55.6%
same,inhibition of growth at 50 mg/kg,Phytophthora capsici,7.9%
same,inhibition of growth at 50 mg/kg,Rhizoctonia cereali,47.1%
same,inhibition at 100 µg/mL,[6]; treatment dose 100 μg/mL,0%
same,inhibition at 500 µg/mL,[6]; treatment dose 500 μg/mL,26.6%
same,mortality at 10 mg/kg,mosquito larvae; [9],20%
same,inhibition of growth at 50 mg/kg,cucumber fusarium wilt,19.2%
same,inhibition of growth at 50 mg/kg,Alternaria solani,25%
same,inhibition of growth at 50 mg/kg,Sclerotinia scleotiorum,35.3%
same,inhibition of growth at 50 mg/kg,Cercospora arachidicola,41.2%
same,inhibition of growth at 50 mg/kg,Fusarium fujikuroi,21.4%
same,mortality at 600 mg/kg,cotton bollworms,60%
same,inhibition of growth at 50 mg/kg,Rhizoctonia solani,26.3%
same,inhibition of growth at 50 mg/kg,potato late blight,20%
same,inhibition of growth at 50 mg/kg,Fusarium graminearumt,27.6%
same,Armyworm Mortality (%),armyworms,5%
C[C@@H]1N[C@H](C(=O)NN=Cc2ccc3c(c2)OCO3)Cc2c1[nH]c1ccccc21 [Ic-12],Relative inhibition rate (%) In vivo therapy,[1]; treatment dose 100 μg/mL,30.2%
same,Relative inhibition rate (%) In vivo therapy,[1]; treatment dose 500 μg/mL,69%
same,Bactericidal activity (%) Colletotrichum orbiculare,[2],48.0%
same,Corn borer Mortality (%),corn borers [7],15%
same,Bactericidal activity (%) Botrytis cinerea,Botrytis cinerea,88.9%
same,Relative inhibition rate (%) In vivo inactivation,[4]; treatment dose 100 μg/mL,33.6%
same,Relative inhibition rate (%) In vivo inactivation,[4]; treatment dose 500 μg/mL,74.5%
same,anti-TMV activity compared with ningnanmycin,[8],equivalent to the activity of commercial variety ningnanmycin
same,Bactericidal activity (%) Bipolaria maydis,Bipolaria maydis; 50 mg/kg,56.0%
same,Relative inhibition rate (%) In vivo protection,[5]; treatment dose 100 μg/mL,35.8%
same,Relative inhibition rate (%) In vivo protection,[5]; treatment dose 500 μg/mL,68.1%
same,Bactericidal activity (%) Macrophoma kawatsukai,Macrophoma kawatsukai,63.6%
same,Bactericidal activity (%) Phytophthora capsici,Phytophthora capsici,81.8%
same,Bactericidal activity (%) Rhizoctonia cereali,Rhizoctonia cereali,86.5%
same,Relative inhibition rate (%) In vitro activity,[6]; treatment dose 100 μg/mL,29.1%
same,Relative inhibition rate (%) In vitro activity,[6]; treatment dose 500 μg/mL,72.6%
same,Mosquito larvae Mortality (%),mosquito larvae; concentration 10 mg/kg,15%
same,Bactericidal activity (%) Cucumber fusarium wilt,cucumber fusarium wilt,31.8%
same,Bactericidal activity (%) Alternaria solani,Alternaria solani,52.4%
same,Bactericidal activity (%) Sclerotinia scleotiorum,Sclerotinia scleotiorum,44.2%
same,Bactericidal activity (%) Cercospora arachidicola,Cercospora arachidicola,63.6%
same,Bactericidal activity (%) Fusarium fujikuroi,Fusarium fujikuroi,58.8%
same,Cotton bollworm Mortality (%),cotton bollworms; concentration 600 mg/kg,30%
same,Bactericidal activity (%) Rhizoctonia solani,Rhizoctonia solani,50.0%
same,Bactericidal activity (%) potato late blight,potato late blight,39.1%
same,Bactericidal activity (%) Fusarium graminearumt,Fusarium graminearumt; 50 mg/kg,53.8%
same,Armyworm Mortality (%),armyworms,15%
